Assay results published in article PMC7206119, “RIP1 inhibition blocks inflammatory diseases but not tumor growth or metastases” (Cell Death and Differentiation, 2019).

Legend:
Assay in all cases: biochemical
Set-up in all cases: DiscoverX kinase panel, active-site competition binding (KINOMEscan type), percent of control at one concentration
Conditions in all cases: competition binding, percent of control
[1] = molecular target: T1, ABL1(F317I)-nonphosphorylated (Homo sapiens, UniProt P00519, F317I)
T1 construct: nonphosphorylated

[2] = molecular target: T2, ABL1(H396P)-phosphorylated (Homo sapiens, UniProt P00519, H396P)
T2 construct: phosphorylated

[3] = molecular target: T3, AMPK-alpha1 (Homo sapiens, UniProt Q13131)
T3 construct: gene PRKAA1

[4] = molecular target: CAMK1 (Homo sapiens, UniProt Q14012)
[5] = molecular target: CAMK2A (Homo sapiens, UniProt Q9UQM7)
[6] = molecular target: CSNK1G1 (Homo sapiens, UniProt Q9HCP0)
CSNK1G1, sequence (Q9HCP0 whole entry): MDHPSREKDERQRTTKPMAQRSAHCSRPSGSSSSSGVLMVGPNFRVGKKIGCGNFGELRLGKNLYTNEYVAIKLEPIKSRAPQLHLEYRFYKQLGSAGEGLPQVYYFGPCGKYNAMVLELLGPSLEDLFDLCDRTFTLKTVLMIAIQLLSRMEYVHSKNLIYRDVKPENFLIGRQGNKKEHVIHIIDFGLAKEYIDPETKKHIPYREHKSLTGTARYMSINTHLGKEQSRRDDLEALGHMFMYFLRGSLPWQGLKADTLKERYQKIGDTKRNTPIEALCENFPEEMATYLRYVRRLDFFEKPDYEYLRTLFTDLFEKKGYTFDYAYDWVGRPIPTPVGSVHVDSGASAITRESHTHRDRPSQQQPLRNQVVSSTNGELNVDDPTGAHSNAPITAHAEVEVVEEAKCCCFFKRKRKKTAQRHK

[7] = molecular target: T4, DCAMKL3 (Homo sapiens, UniProt Q9C098)
T4 construct: gene DCLK3

[8] = molecular target: EGFR(G719S) (Homo sapiens, UniProt P00533, G719S)
[9] = molecular target: EPHA8 (Homo sapiens, UniProt P29322)
EPHA8, sequence (P29322 whole entry): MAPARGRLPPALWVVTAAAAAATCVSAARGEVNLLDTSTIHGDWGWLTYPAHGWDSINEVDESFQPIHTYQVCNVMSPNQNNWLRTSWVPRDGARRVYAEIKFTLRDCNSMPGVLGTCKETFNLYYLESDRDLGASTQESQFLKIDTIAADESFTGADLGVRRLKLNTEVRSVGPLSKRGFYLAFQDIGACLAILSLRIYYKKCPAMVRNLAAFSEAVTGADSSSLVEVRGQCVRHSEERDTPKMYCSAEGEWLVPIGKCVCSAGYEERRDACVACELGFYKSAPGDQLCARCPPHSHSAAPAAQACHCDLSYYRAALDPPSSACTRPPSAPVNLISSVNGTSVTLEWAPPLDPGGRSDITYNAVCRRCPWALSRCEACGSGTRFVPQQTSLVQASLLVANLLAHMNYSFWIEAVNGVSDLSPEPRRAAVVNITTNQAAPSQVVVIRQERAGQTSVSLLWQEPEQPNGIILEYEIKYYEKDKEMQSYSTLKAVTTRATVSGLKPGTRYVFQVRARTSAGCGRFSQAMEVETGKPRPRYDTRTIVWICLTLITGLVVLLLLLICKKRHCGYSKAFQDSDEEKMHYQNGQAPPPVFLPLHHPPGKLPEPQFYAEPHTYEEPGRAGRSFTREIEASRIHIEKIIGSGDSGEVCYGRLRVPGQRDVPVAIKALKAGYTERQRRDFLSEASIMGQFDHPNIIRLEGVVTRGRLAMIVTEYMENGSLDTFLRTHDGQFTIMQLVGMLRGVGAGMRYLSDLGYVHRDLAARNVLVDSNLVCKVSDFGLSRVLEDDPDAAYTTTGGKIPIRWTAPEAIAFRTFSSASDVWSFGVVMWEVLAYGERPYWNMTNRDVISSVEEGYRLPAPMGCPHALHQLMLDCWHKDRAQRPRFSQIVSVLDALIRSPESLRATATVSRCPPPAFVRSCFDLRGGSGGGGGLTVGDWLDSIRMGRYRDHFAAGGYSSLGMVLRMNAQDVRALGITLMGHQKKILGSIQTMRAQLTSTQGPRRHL

[10] = molecular target: ERBB4 (Homo sapiens, UniProt Q15303)
ERBB4, sequence (Q15303 whole entry): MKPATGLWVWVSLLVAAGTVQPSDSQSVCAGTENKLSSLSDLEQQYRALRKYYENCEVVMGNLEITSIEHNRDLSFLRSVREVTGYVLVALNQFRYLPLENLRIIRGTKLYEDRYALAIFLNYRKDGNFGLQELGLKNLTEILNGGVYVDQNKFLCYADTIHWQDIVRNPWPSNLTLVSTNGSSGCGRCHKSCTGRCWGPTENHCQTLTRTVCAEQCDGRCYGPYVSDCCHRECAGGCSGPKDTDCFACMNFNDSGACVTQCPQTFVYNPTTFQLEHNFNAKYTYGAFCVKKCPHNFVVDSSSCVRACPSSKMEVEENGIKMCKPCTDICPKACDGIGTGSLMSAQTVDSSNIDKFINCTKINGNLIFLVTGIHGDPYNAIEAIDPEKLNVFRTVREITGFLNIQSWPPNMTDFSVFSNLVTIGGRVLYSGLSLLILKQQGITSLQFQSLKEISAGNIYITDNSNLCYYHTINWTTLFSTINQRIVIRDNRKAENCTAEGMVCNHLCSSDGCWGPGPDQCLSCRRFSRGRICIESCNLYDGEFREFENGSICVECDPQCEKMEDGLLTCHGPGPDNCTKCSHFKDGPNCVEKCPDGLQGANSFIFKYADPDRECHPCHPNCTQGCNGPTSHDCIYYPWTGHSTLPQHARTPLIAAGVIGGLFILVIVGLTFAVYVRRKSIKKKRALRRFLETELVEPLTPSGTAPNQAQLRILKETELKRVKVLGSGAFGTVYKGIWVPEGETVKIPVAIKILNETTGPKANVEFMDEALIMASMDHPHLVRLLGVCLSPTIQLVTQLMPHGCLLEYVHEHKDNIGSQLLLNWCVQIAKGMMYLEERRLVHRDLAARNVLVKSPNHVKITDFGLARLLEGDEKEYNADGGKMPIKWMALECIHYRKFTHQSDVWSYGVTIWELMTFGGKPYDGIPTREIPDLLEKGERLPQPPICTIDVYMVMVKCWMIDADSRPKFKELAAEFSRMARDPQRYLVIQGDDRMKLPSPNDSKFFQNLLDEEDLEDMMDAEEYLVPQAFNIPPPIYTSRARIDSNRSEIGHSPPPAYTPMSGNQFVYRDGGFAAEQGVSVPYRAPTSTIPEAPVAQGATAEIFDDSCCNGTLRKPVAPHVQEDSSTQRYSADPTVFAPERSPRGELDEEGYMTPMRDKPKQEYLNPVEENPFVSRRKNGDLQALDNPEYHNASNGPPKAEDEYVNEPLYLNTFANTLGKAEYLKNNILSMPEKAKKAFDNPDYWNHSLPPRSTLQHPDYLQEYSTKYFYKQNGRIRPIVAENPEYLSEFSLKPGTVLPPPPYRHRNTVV

[11] = molecular target: LCK (Homo sapiens, UniProt P06239)
[12] = molecular target: MARK4 (Homo sapiens, UniProt Q96L34)
MARK4, sequence (Q96L34 whole entry): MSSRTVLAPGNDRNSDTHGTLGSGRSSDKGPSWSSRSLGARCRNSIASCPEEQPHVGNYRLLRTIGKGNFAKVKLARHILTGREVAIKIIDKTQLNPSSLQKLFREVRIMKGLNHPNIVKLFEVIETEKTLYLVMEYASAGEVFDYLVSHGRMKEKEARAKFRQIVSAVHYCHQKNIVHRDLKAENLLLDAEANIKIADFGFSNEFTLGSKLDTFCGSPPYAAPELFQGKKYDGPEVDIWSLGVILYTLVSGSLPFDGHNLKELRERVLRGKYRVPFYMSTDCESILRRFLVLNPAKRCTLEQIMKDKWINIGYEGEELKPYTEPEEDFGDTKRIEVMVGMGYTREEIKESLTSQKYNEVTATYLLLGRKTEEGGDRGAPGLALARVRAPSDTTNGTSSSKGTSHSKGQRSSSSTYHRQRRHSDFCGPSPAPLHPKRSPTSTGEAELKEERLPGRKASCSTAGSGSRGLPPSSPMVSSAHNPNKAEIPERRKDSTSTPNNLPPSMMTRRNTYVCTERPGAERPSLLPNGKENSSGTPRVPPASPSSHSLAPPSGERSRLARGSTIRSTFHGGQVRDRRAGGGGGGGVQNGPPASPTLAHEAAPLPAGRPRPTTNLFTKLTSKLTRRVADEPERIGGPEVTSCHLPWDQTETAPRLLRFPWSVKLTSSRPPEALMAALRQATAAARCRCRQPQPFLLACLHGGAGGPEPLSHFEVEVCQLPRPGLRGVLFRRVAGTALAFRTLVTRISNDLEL

[13] = molecular target: NEK1 (Homo sapiens, UniProt Q96PY6)
[14] = molecular target: T5, PCTK3 (Homo sapiens, UniProt Q07002)
T5 construct: gene CDK18

[15] = molecular target: PIK3CA(E545A) (Homo sapiens, UniProt P42336, E545A)
[16] = molecular target: PRKCD (Homo sapiens, UniProt Q05655)
PRKCD, sequence (Q05655 whole entry): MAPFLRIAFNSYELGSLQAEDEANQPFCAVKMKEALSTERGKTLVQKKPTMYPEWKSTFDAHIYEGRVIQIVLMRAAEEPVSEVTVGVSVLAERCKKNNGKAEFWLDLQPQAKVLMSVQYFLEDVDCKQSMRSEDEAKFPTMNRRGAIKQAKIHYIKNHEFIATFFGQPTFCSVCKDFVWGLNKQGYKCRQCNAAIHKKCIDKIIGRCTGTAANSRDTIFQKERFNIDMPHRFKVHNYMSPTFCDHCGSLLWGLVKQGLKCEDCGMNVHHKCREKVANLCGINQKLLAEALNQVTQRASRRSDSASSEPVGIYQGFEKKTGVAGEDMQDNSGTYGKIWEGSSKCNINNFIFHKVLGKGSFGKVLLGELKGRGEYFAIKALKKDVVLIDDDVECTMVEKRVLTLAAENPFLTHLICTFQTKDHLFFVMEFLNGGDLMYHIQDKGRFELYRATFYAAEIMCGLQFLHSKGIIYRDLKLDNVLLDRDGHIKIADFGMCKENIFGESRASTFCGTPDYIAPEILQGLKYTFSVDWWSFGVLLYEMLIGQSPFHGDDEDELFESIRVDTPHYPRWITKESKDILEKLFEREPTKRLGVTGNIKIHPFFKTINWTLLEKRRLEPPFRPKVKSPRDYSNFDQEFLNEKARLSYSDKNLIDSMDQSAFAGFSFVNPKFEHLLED

[17] = molecular target: T6, RPS6KA4(Kin.Dom.1-N-terminal) (Homo sapiens, UniProt O75676)
T6 construct: Kin.Dom.1-N-terminal

[18] = molecular target: TLK2 (Homo sapiens, UniProt Q86UE8)
TLK2, sequence (Q86UE8 whole entry): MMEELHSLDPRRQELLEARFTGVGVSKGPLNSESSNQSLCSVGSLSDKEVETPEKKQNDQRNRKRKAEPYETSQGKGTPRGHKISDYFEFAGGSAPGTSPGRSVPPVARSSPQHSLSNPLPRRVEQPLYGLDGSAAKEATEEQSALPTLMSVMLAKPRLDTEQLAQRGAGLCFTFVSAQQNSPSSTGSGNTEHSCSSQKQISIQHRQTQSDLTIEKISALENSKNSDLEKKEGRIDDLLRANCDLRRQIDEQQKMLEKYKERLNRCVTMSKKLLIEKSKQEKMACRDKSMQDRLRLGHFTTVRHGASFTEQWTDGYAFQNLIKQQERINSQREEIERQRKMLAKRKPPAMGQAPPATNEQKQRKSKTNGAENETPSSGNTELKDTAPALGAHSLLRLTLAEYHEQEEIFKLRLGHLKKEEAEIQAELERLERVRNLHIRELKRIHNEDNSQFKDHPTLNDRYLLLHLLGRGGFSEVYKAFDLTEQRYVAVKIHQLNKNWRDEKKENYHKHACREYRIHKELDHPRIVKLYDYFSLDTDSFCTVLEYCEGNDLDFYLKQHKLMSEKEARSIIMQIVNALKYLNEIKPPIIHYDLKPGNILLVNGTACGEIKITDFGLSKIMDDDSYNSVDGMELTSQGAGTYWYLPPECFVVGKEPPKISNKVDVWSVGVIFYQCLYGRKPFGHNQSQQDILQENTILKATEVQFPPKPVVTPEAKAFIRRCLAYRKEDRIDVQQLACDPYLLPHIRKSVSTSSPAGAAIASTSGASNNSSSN

[19] = molecular target: T7, TRKA (Homo sapiens, UniProt P04629)
T7 construct: gene NTRK1

[20] = molecular target: TSSK1B (Homo sapiens, UniProt Q9BXA7)
[21] = molecular target: ULK1 (Homo sapiens, UniProt O75385)

`COc1cc2c(cn1)N(C)C(=O)[C@@H](NC(=O)c1nc3n(n1)[C@H](c1ccccc1)CC3)CC2` [GNE684, (S)-N-((S)-7-methoxy-1-methyl-2-oxo-2,3,4,5-tetrahydro-1H-pyrido[3,4-b]azepin-3-yl)-5-phenyl-6,7-dihydro-5H-pyrrolo[1,2-b][1,2,4]triazole-2-carboxamide] showed a remaining binding at 10 µM [1] of 97%, a remaining binding at 10 µM [2] of 92% and a remaining binding at 10 µM [3] of 97%. The remaining binding at 10 µM [4] was 91%, the remaining binding at 10 µM [5] was 69% and the remaining binding at 10 µM [6] was 91%. The remaining binding at 10 µM [7] was 92%, the remaining binding at 10 µM [8] was 100% and the remaining binding at 10 µM [9] was 100%. It also gave a remaining binding at 10 µM [10] of 85%, a remaining binding at 10 µM [11] of 86% and a remaining binding at 10 µM [12] of 60%. The remaining binding at 10 µM [13] was 100%, the remaining binding at 10 µM [14] was 94% and the remaining binding at 10 µM [15] was 100%. The remaining binding at 10 µM [16] was 86%, the remaining binding at 10 µM [17] was 75% and the remaining binding at 10 µM [18] was 100%. For the same molecule, the remaining binding at 10 µM [19] was 87%, the remaining binding at 10 µM [20] was 95% and the remaining binding at 10 µM [21] was 98%.
